Assays:
human CRF1 receptor = target: T1, human CRF1 receptor (Homo sapiens, UniProt P34998); assay: Measurement of CRF Binding Inhibitory Rate (receptor binding experiment with 125I-CRF); settings: human CRF1 receptor expressing CHO cellular membrane fraction, 50 pM 125I-CRF, room temperature 1.5 hr, 0.05 nM to 10 μM of compound; read-out: IC50 values (CRF binding inhibition)
T1 construct: expressed in transfected cells; host or cells: CHO cells (membrane fraction)
T1 sequence (P34998 24-415): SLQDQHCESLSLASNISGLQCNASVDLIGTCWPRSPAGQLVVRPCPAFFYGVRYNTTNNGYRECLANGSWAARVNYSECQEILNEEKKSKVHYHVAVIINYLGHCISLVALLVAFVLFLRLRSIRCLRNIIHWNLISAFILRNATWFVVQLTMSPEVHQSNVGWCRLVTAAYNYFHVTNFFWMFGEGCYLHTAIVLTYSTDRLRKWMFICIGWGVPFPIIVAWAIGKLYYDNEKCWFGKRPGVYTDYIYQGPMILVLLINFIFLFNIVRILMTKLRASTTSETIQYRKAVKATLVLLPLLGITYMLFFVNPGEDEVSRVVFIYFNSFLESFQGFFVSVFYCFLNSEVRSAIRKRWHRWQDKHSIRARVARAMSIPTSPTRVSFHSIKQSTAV

SMILES	IC50 (human CRF1 receptor) [nM]	melting point [°C]
CCC(OC)c1cccc2nc3n(c12)CCCN3c1ccc(Cl)cc1Cl (centres unmarked) [Example 93, 1-(2,4-Dichlorophenyl)-6-(1-methoxypropyl)-1,2,3,4-tetrahydropyrimido[1,2-a]benzimidazole]	< 1000	151 to 153
CCC(O)c1cccc2nc3n(c12)CCCCN3c1ccc(Cl)cc1Cl (centres unmarked) [Example 68, 1-[1-(2,4-Dichlorophenyl)-2,3,4,5-tetrahydro-1H-[1,3]diazepino[1,2-a]benzimidazol-7-yl]propan-1-ol]	< 1000	241 to 243
Cc1cc(C#N)ccc1N1CCCn2c1nc1c(Cl)ccc(C(OC(F)F)C(F)(F)F)c12 (centres unmarked) [Example 325, 4-{9-chloro-6-[1-(difluoromethoxy)-2,2,2-trifluoroethyl]-3,4-dihydropyrimido[1,2-a]benzimidazol-1(2H)-yl}-3-methylbenzonitrile]	< 1000	195 to 197
CCC(c1ccc(Cl)c2nc3n(c12)CCCN3c1c(C)nc(OC)nc1C)C(F)F (centres unmarked) [Example 222, 9-Chloro-6-[1-(difluoromethyl)propyl]-1-(2-methoxy-4,6-dimethylpyrimidin-5-yl)-1,2,3,4-tetrahydropyrimido[1,2-a]benzimidazole]	< 1000	181 to 183
CCC(OC(C)=O)c1ccc(Cl)c2nc3n(c12)CCCCN3c1ccc(OC)cc1Cl (centres unmarked) [Example 334, 1-[10-Chloro-1-(2-chloro-4-methoxyphenyl)-2,3,4,5-tetrahydro-1H-[1,3]diazepino[1,2-a]benzimidazol-7-yl]propyl acetate]	< 1000	177 to 179
CCCC(O)(CCC)c1ccc(Cl)c2nc3n(c12)CCCN3c1ccc(Cl)cc1C(F)(F)F [Example 129, 4-{9-Chloro-1-[4-chloro-2-(trifluoromethyl)phenyl]-1,2,3,4-tetrahydropyrimido[1,2-a]benzimidazol-6-yl}heptan-4-ol]	< 1000	200 to 202
CCC(OC(=O)CO)c1ccc(Cl)c2nc3n(c12)CCCN3c1ccc(Cl)cc1Cl (centres unmarked) [Example 443, 1-[9-Chloro-1-(2,4-dichlorophenyl)-1,2,3,4-tetrahydropyrimido[1,2-a]benzimidazol-6-yl]propyl hydroxyacetate]	< 1000	191 to 193
CC(=O)OC(c1ccc(Cl)c2nc3n(c12)CCCN3c1ccc(Cl)cc1Cl)C(F)(F)F (centres unmarked) [Example 311, 1-[9-Chloro-1-(2,4-dichlorophenyl)-1,2,3,4-tetrahydropyrimido[1,2-a]benzimidazol-6-yl]-2,2,2-trifluoroethyl acetate]	< 1000	197 to 199
CCC(OC(=O)CS(C)(=O)=O)c1ccc(Cl)c2nc3n(c12)CCCN3c1ccc(Cl)cc1Cl (centres unmarked) [Example 433, 1-[9-Chloro-1-(2,4-dichlorophenyl)-1,2,3,4-tetrahydropyrimido[1,2-a]benzimidazol-6-yl]propyl (methylsulfonyl) acetate]	< 1000	187 to 189
CCN(CC)c1cccc2nc3n(c12)CCCN3c1cnc(OC)nc1OC [Example 79, 1-(2,4-Dimethoxypyrimidin-5-yl)-N,N-diethyl-1,2,3,4-tetrahydropyrimido[1,2-a]benzimidazol-6-amine]	< 1000	170 to 171
COc1nc(C)c(N2CCCn3c2nc2c(Cl)ccc(C(O)(C4CC4)C4CC4)c23)c(C)n1 [Example 188, [9-Chloro-1-(2-methoxy-4,6-dimethylpyrimidin-5-yl)-1,2,3,4-tetrahydropyrimido[1,2-a]benzimidazol-6-yl](dicyclopropyl)methanol]	< 1000	220 to 221
CCC(CC)c1ccc(Cl)c2nc3n(c12)CCCCN3c1ccc(OC(F)(F)F)cc1Br [Example 39, 1-[2-Bromo-4-(trifluoromethoxy)phenyl]-10-chloro-7-(1-ethylpropyl)-2,3,4,5-tetrahydro-1H-[1,3]diazepino[1,2-a]benzimidazole]	< 1000	114 to 117
CCC(OC(=O)COC)c1ccc(Cl)c2nc3n(c12)CCCN3c1ccc(Cl)cc1Cl (centres unmarked) [Example 432, 1-[9-Chloro-1-(2,4-dichlorophenyl)-1,2,3,4-tetrahydropyrimido[1,2-a]benzimidazol-6-yl]propyl methoxyacetate]	< 1000	156 to 158
COC(c1cccc2nc3n(c12)CCCN3c1ccc(Cl)cc1Cl)C1CC1 (centres unmarked) [Example 200, 6-[Cyclopropyl(methoxy)methyl]-1-(2,4-dichlorophenyl)-1,2,3,4-tetrahydropyrimido[1,2-a]benzimidazole]	< 1000	118 to 119
COc1ccc(N2CCCn3c2nc2c(Cl)ccc(C(O)(C4CC4)C4CC4)c23)c(C)n1 [Example 276, [9-Chloro-1-(6-methoxy-2-methylpyridin-3-yl)-1,2,3,4-tetrahydropyrimido[1,2-a]benzimidazol-6-yl](dicyclopropyl)methanol]	< 1000	208 to 210
CCOc1ccc(N2CCCn3c2nc2c(Cl)ccc(C(OC(F)F)C(F)(F)F)c23)c(C)c1 (centres unmarked) [Example 356, 9-Chloro-6-[1-(difluoromethoxy)-2,2,2-trifluoroethyl]-1-(4-ethoxy-2-methylphenyl)-1,2,3,4-tetrahydropyrimido[1,2-a]benzimidazole]	< 1000	179 to 182
CCN(CC)c1cccc2nc3n(c12)CCCN3c1nnc(Cl)cc1C [Example 80, 1-(6-Chloro-4-methylpyridazin-3-yl)-N,N-diethyl-1,2,3,4-tetrahydropyrimido[1,2-a]benzimidazol-6-amine]	< 1000	193 to 195
CCC(CC)c1ccc(Cl)c2nc3n(c12)CCCCN3c1cc(C)cc2c1ncn2C [Example 230, 10-Chloro-1-(1,6-dimethyl-1H-benzimidazol-4-yl)-7-(1-ethylpropyl)-2,3,4,5-tetrahydro-1H-[1,3]diazepino[1,2-a]benzimidazole]	< 1000	259 to 260
CCC(CC)c1ccc(Cl)c2nc3n(c12)CCCCN3c1ccc(C(F)(F)F)cc1Br [Example 38, 1-[2-Bromo-4-(trifluoromethyl)phenyl]-10-chloro-7-(1-ethylpropyl)-2,3,4,5-tetrahydro-1H-[1,3]diazepino[1,2-a]benzimidazole]	< 1000	158 to 160
CCC(O)c1ccc(Cl)c2nc3n(c12)CCCN3c1c(Br)cc(OC)cc1Br (centres unmarked) [Example 397, 1-[9-Chloro-1-(2,6-dibromo-4-methoxyphenyl)-1,2,3,4-tetrahydropyrimido[1,2-a]benzimidazol-6-yl]propan-1-ol]	< 1000	138 to 140
COc1ccc(N2CCCn3c2nc2c(Cl)ccc(C(O)(C4CC4)C4CC4)c23)c(C)c1 [Example 354, [9-Chloro-1-(4-methoxy-2-methylphenyl)-1,2,3,4-tetrahydropyrimido[1,2-a]benzimidazol-6-yl](dicyclopropyl)methanol]	< 1000	181 to 182
OC(c1ccc(Cl)c2nc3n(c12)CCCN3c1ccc(Cl)cc1Cl)C1CC1 (centres unmarked) [Example 113, [9-Chloro-1-(2,4-dichlorophenyl)-1,2,3,4-tetrahydropyrimido[1,2-a]benzimidazol-6-yl](cyclopropyl)methanol]	< 1000	223 to 224
CCC(NC(C)=O)c1ccc(Cl)c2nc3n(c12)CCCN3c1ccc(Cl)cc1Cl (centres unmarked) [Example 440, N-{1-[9-Chloro-1-(2,4-dichlorophenyl)-1,2,3,4-tetrahydropyrimido[1,2-a]benzimidazol-6-yl]propyl}acetamide]	< 1000	237 to 239
CCN(CC)c1cc(F)cc2nc3n(c12)CCCN3c1ccc(Cl)cc1Cl [Example 335, 1-(2,4-Dichlorophenyl)-N,N-diethyl-8-fluoro-1,2,3,4-tetrahydropyrimido[1,2-a]benzimidazol-6-amine]	< 1000	142 to 145
CCC(O)c1ccc(Cl)c2nc3n(c12)CCCN3c1c(Cl)cc(Cl)cc1Cl (centres unmarked) [Example 391, 1-[9-Chloro-1-(2,4,6-trichlorophenyl)-1,2,3,4-tetrahydropyrimido[1,2-a]benzimidazol-6-yl]propan-1-ol]	< 1000	213 to 214
CCN(CC)c1cccc2nc3n(c12)CC(CO)N3c1ccc(Cl)cc1Cl (centres unmarked) [Example 76, [1-(2,4-Dichlorophenyl)-5-(diethylamino)-2,3-dihydro-1H-imidazo[1,2-a]benzimidazol-2-yl]methanol]	< 1000	187 to 190
CCN(CC)c1cccc2nc3n(c12)CC(O)CN3c1ccc(Cl)cc1Cl (centres unmarked) [Example 77, 1-(2,4-Dichlorophenyl)-6-(diethylamino)-1,2,3,4-tetrahydropyrimido[1,2-a]benzimidazol-3-ol]	< 1000	239 to 242
CCC(NCC(F)(F)F)c1ccc(Cl)c2nc3n(c12)CCCN3c1ccc(Cl)cc1Cl (centres unmarked) [Example 459, 1-[9-Chloro-1-(2,4-dichlorophenyl)-1,2,3,4-tetrahydropyrimido[1,2-a]benzimidazol-6-yl]-N-(2,2,2-trifluoroethyl)propan-1-amine]	< 1000	133 to 135

From patent US8785460B2, “Tricyclic compounds and use thereof” (Takeda Pharmaceutical Company Limited, priority 2008, dated 2014)
